The numbers were not newly measured in patent US20120308672A1, “COMPOSITIONS FOR HAIR AND BODY APPLICATION” (EQYSS GROOMING PRODUCTS, priority 2004, published 2012), which cites them from elsewhere.

The subject of the data set is mosquitoes. Conditions: topical repellent.

As to `CCN(CC)C(=O)c1cccc(C)c1` [DEET, N,N,-diethyl-m-toluamide], the protection against mosquitoes entry was “effective and long-lasting protection”.
